Results from US5244884A, “Thionated analogues of thyrotropin releasing hormone” (The United States of America as represented by the …, priority 1992, dated 1993).

Columns and labels:
[1] = target: T1, TRH receptor binding sites in pituitary (Rattus norvegicus, UniProt Q01717); assay: Receptor binding assay, [3H][3-Me-His2]-TRH competition, anterior pituitary homogenate; design: species or system rat (Sprague-Dawley); details: rat anterior pituitary membranes; [3H][3-Me-His2]-TRH 3 to 5 nM; 4-6 °C, 2.5 hours; mean ± S.E.M.
T1 construct: from tissue; host or cells: rat anterior pituitary membrane pellet (homogenate, 39000 g)
T1 sequence (Q01717 1-412): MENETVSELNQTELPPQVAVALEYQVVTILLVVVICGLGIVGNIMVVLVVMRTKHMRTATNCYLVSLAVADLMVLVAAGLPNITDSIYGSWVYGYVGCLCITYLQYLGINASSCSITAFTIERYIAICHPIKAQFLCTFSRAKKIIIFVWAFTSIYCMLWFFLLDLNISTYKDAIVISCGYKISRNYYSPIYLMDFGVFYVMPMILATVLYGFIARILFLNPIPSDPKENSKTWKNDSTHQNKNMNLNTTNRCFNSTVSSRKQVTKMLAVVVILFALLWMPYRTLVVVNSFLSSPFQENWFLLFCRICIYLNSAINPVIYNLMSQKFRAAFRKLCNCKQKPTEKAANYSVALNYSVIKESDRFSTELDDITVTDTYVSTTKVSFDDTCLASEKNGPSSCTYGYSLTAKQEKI
Method: (§1) Adult, male Sprague-Dawley rats were obtained from Taconic Farms (Germantown, N.Y.) and housed at controlled temperature (22° C.) and light cycle (12/12 h) with free access to food and water. On the experimental day, six to eight animals were rapidly decapitated and their brains quickly removed and placed on a cold plate. Anterior pituitary and cortex tissue samples were obtained and processed immediately for receptor-binding experiments.
(§2) All steps of the tissue preparation and binding assays were done on ice. After weighing, pooled tissue samples were homogenized in 25 ml of ice-cold sodium phosphate buffer (0.1M, pH 7.4-7.5), using a Brinkmann Polytron homogenizer (setting 7, 15-20 s). The homogenates were then centrifuged in a refrigerated Sorvall RC5B centrifuge at 39000 g for 30 minutes. The supernatants were discharged and the pellets were resuspended to a concentration of 50 (pituitary) or 100 mg wet weight/ml (ww/ml, cortex) in ice-cold sodium phosphate buffer containing 177 μM Bacitracin.
(§3) Competition experiments were performed by incubating mixtures of tissue resuspensions, [3H][3-Me-His2]-TRH (87 Ci/mmol, Amersham) in 3 to 5 nM final concentration and increasing amounts of analog in a total volume of 100 μl/vial at 4° to 6° C. for 2.5 hours. In order to limit loss of peptides by adherence to glass, 0.05% bovine serum albumin was included in the assays. Nonspecific binding was determined in the presence of 10 μM TRH. The incubation period was terminated by vacuum filtration of the incubation mixture through Whatman GF/B glass filters, using a 48-well cell harvester (Brandel Inc., Gaithersburg, Md.), followed by four rinses with 4 ml each of ice-cold 0.9% NaCl solution. Filters were then placed in scintillation vials and kept overnight in 5 ml of watermiscible scintillation fluid (Beckman Ready-SolvTM HP) each. Bound radioactivity was measured after thorough shaking of the vials on the following day in an LKB 1218 Rackbeta liquid scintillation counter with automatic correction for tritium quenching. Specific binding was calculated as total binding minus nonspecific binding. Inhibition constants, Ki, were determined according to Cheng and Prusoff (1973) using the radioligand-binding analysis software LIGAND (Elsevier-Biosoft; Munson and Rodbard, 1980). Unless otherwise stated, data in tables and figures represent mean values±S.E.M. (standard error of the mean of separate experiments done in duplicate).

TSH release [2] = details: compared with natural TRH; reported by Kruszynski; cited from earlier work
[3] = target: TRH receptor binding sites in cortex; assay: Receptor binding assay, [3H][3-Me-His2]-TRH competition, cortex homogenate; design: species or system rat (Sprague-Dawley); details: rat cortex membranes; [3H][3-Me-His2]-TRH 3 to 5 nM; 4-6 °C, 2.5 hours; mean ± S.E.M.
Method: as §1, §2
as §3, with “The incubation period was terminated by vacuum filtration of the incubation mixture through Whatman GF/B glass filters, using a 48-well cell harvester (Brandel Inc., Gaithersburg, Md.), followed by four rinses with 4 ml each of ice-cold 0.9% NaCl solution.” left out, “Unless otherwise stated, data in tables and figures represent mean values±S.E.M. (standard error of the mean of separate experiments done in duplicate).” left out

TRH receptor = details: compared with natural TRH; reported by Kruszynski; cited from earlier work
TSH release [4] = details: relative to TRH; cited from earlier work

Row | Ki [1] [nM] | Ki [3] [nM] | Compound | TSH releasing activity (TSH release [2]) | TRH receptor binding affinity (TRH receptor) | potency in stimulating TSH release compared with TRH (TSH release [4])
1 | 31.9 ± 2.9 |  | NC(=O)[C@@H]1CCCN1C(=O)[C@H](Cc1c[nH]cn1)NC(=O)[C@@H]1CCC(=S)N1 [Example 1, L-thiopyroglutamyl-L-histidyl-L-oroline amide] |  |  | 
2 | 8 ± 0.2 | 93.1 ± 16.5 | NC(=S)[C@@H]1CCCN1C(=O)[C@H](Cc1c[nH]cn1)NC(=O)[C@@H]1CCC(=O)N1 [Example 3, L-pyroglutamyl-L-histidyl-L-proline thioamide] | matching that of natural TRH | matching that of natural TRH | 
3 | 85.4 ± 17.8 | 86.1 ± 6.3 | NC(=S)[C@@H]1CCCN1C(=O)[C@H](Cc1c[nH]cn1)NC(=O)[C@@H]1CCC(=S)N1 [Example 2, L-thiopyroglutamyl-L-histidyl-L-proline thioamide] |  |  | more potent than TRH
4 | 24.1 ± 14.2 | 26.1 ± 4.5 | NC(=O)[C@@H]1CCCN1C(=O)[C@H](Cc1c[nH]cn1)NC(=O)[C@@H]1CCC(=O)N1 [TRH, L-pyroglutamyl-L-histidyl-L-proline-amide, reference compound] |  |  | 
